# Where a name gives a salt, the structure may show the parent alone. Read-outs that look alike come from different tables or passages of the source.
# Columns and labels:
# THP-1 cells [1] = test: Transmembrane potential assay on Caliper 3B5 microfluidic processor, THP-1 cells; type: cell-based; conditions: 50 μM UTP in high sodium buffer, resting approximately −40 mV
# Experimental: Changes in the cell transmembrane potential were detected in microfluidic processor by the mixing of cells and the dyes DiBAC4(3) and SYTO62. […] Dye uptake by THP-1 cells was measured on a Caliper® 3B5 microfluidic processor (FIG. 5). One of the long channels of the processor contained THP-1 cells (3×10^6 cells/ml) suspended in high sodium buffer as above, while the other long channel contained 400 nM DiBAC4(3) and 10 μM SYTO62 in high sodium buffer. Transmembrane potential was set to resting potential, hyperpolarization or depolarization by placing either high sodium, 50 μM UTP in high sodium or high potassium buffer in the short arm. Resting, hyperpolarized and depolarized potentials are estimated to be approximately −40, −100 and 0 mV respectively. The microfluidic processor was maintained at room temperature (˜23° C.). DiBAC4(3) and SYTO62 fluorescence was read after the cells had traveled approximately 90 seconds from the junction (ΔP˜1″H2O). Panel A depicts the average fluorescence ratio (DiBAC4(3)/SYTO62) for runs of ˜80 cells each. Error bars are standard error values. As shown in panel B, Histograms show the expected voltage dependent changes in the fluorescence intensities of individual cells as a function of transmembrane potential.
# THP-1 cells [2] = test: Lab-on-a-chip membrane potential assay, uptake of DiBAC4(3) and Syto 62 by THP-1 cells; type: cell-based
# From the text: The microfluidic technology used in the LabChip® system for this example utilizes microchannels etched into quartz chips coupled with a sampling micropipette that can access samples from microtitre plates. The LabChip® system accesses liquid samples sequentially from a microplate, mixes the samples with cells flowing through a microchannel and reads out cellular responses using fluorescence detection. The system was applied to the measurement of changes in transmembrane potential. […].
# As show in FIG. 8, panel A and panel B, the lab-on-a-chip system which was used consisted of quartz chip 801 containing microchannels 803 and 805 connected to Sipper™ capillary 807, robot 809 to move microplate 811, light source 813, optics 815 and fluorescence reader 817, vacuum pump 816, and a computer to control system functions and record data. Light from light source 813 (e.g., mercury arc lamp (470 nm) or an argon ion laser) was focused onto microchip 801 with through optics 815 comprising an objective (10×, 0.3 NA air). Fluorescence was collected with the objective, split into two channels (525 nm and 700 nm) and detected with fluorescence reader 817 which comprises photodiodes. Fluorescence readings were acquired at 20–90 Hz. The three axis robot 809 was used to position microplate 811 so that chip 801 could sample microplate 811, whether in a 96 or 384 well configuration.
# A schematic of chip 801 with 90×20 μm channels is shown in FIG. 8, panel B. Flowing cells from cell well 819 were mixed with samples introduced through the Sipper™ capillary 807 (20 μm ID). The flow rate in the detection channel was varied from 2 to 10 nl/s by varying the vacuum applied to waste well 821. Agonists or dyes were added from side well 823. The incubation time in detection channel 803 was varied between 10 and 75 seconds by varying the applied pressure and the location of detector elements (e.g., optics 815) relative to chip 801.
# As shown in panel A, the potential sensitive fluorescence signal was derived not from the slow re-equilibration of dyes that were pre-loaded into cells but rather from the rate of uptake of charged, membrane-permeable dyes. Using both an anionic dye, DiBAC4(3), and a cationic dye, Syto 62, yielded a ratiometric measurement with increased sensitivity. Cells were mixed on chip with test samples and dyes stored on the chip. After a short incubation in the detection channel, the fluorescence of individual cells was detected.
# As shown in panel B, peaks in green (DiBAC) and red (Syto 62) fluorescence corresponded to THP-1 cells mixed with either buffer, UTP or quinidine sulfate flowing past the detector following a 75 second dye incubation.
# As shown in panels C and D, the rate of uptake of DiBAC4(3) (C) and Syto 62 (D) was determined from the average fluorescence peak height as a function of the incubation time for resting cells (∘), cells hyperpolarized with UTP (▪) and cells depolarized with quinidine sulfate (Δ). Compared to resting cells, the rate of increase of DiBAC4(3) peak heights was 48±11% (mean±se, n=5) higher for depolarized cells and 43±5% lower for hyperpolarized cells. Similarly, the rate of increase of the Syto 62 peaks was 7±2% lower for depolarized cells and 37±3% higher for hyperpolarized cells.
# As shown in panel A, a calibration curve relating the ratio of DiBAC4(3)/Syto 62 fluorescence (n=20 to 130 cells) to membrane potential was constructed by increasing the K+ conductance of the THP-1 cells and varying the extracellular K+ concentration. […]
# [3] = test system: peripheral blood T lymphocytes; type: cell-based, human; conditions: for change in DiBAC4(3)/Syto 62 ratio (depolarization): resting T lymphocytes
# From the text: Resting or mitogen activated peripheral blood T lymphocytes (90% CD3+) were flowed through the chip and mixed with ion channel modulators accessed through the Sipper™ capillary. Average DiBAC4(3)/Syto 62 ratios ±SE (n=2–6) are shown.
# Thus, cell based assays of calcium flux and membrane potential were run in the lab-on-a-chip system. A novel approach for measurement of membrane potential was used to detect hyperpolarization and depolarization with high sensitivity. The microfluidic format reduced reagent, sample and cell consumption. As few as 50–200 cells and as little as 10 nl of sample were used per test. […]
compound,measurement,setting,value
O=c1ccn([C@@H]2O[C@H](COP(=O)(O)OP(=O)(O)OP(=O)(O)O)[C@@H](O)[C@H]2O)c(=O)[nH]1 [UTP],"transmembrane potential (hyperpolarized), estimated",THP-1 cells [1],~−100 mV
same,"rate of increase of DiBAC4(3) peak heights, lower compared to resting cells",THP-1 cells [2]; hyperpolarized cells,43±5%
same,"rate of increase of the Syto 62 peaks, higher compared to resting cells",THP-1 cells [2]; hyperpolarized cells,37±3%
Clc1ccccc1C(c1ccccc1)(c1ccccc1)n1ccnc1 [clotrimazole],change in DiBAC4(3)/Syto 62 ratio,"[3]; mitogen activated T lymphocytes in the presence of ionomycin, 30 μM, p<0.05",ratio increases significantly
same,change in DiBAC4(3)/Syto 62 ratio (depolarization),[3]; 30 μM,not
C[C@H](CCC(=O)O)C[C@H](C)C[C@H](C)C(=O)/C=C(\O)[C@H](C)C[C@H](C)C/C=C/[C@@H](C)[C@@H](O)[C@@H](C)[C@@H](O)C[C@@H]1CC[C@@](C)([C@H]2CC[C@@](C)([C@@H](C)O)O2)O1 [ionomycin],DiBAC4(3)/Syto 62 ratio (hyperpolarization),"[3]; mitogen activated T lymphocytes in the presence of ionomycin, compared to resting T lymphocytes, p<0.05",lower ratio compared to resting T lymphocytes
same,change in DiBAC4(3)/Syto 62 ratio (depolarization),[3]; 15 μM,not
C=C[C@H]1C[N@@]2CC[C@H]1C[C@@H]2[C@@H](O)c1ccnc2ccc(OC)cc12 [quinidine sulfate],change in the average DiBAC4(3)/Syto 62 ratio,"THP-1 cells [2]; average±SD, n=3",dose dependent depolarization
same,"rate of increase of the Syto 62 peaks, lower compared to resting cells",THP-1 cells [2]; depolarized cells,7±2%
same,"rate of increase of DiBAC4(3) peak heights, higher compared to resting cells","THP-1 cells [2]; depolarized cells, mean±se, n=5",48±11%
"margatoxin (TIINVKCTSPKQCLPPCKAQFGQSAGAKCMNGKCKCYPH; UniProt P40755 1-39, looked up)",change in DiBAC4(3)/Syto 62 ratio (depolarization),"[3]; 36 μM, p<0.05",significant increase in DiBAC4(3)/Syto 62 ratio

# Reference: US6979553B2, “Use of Nernstein voltage sensitive dyes in measuring transmembrane voltage” (Caliper Life Sciences, Inc., priority 1999, dated 2005)
